Molecules are shown by their SMILES.

In the assay the target is T1, Slo2.1 (Homo sapiens, UniProt Q6UVM3).
T1 sequence (Q6UVM3 1-1135): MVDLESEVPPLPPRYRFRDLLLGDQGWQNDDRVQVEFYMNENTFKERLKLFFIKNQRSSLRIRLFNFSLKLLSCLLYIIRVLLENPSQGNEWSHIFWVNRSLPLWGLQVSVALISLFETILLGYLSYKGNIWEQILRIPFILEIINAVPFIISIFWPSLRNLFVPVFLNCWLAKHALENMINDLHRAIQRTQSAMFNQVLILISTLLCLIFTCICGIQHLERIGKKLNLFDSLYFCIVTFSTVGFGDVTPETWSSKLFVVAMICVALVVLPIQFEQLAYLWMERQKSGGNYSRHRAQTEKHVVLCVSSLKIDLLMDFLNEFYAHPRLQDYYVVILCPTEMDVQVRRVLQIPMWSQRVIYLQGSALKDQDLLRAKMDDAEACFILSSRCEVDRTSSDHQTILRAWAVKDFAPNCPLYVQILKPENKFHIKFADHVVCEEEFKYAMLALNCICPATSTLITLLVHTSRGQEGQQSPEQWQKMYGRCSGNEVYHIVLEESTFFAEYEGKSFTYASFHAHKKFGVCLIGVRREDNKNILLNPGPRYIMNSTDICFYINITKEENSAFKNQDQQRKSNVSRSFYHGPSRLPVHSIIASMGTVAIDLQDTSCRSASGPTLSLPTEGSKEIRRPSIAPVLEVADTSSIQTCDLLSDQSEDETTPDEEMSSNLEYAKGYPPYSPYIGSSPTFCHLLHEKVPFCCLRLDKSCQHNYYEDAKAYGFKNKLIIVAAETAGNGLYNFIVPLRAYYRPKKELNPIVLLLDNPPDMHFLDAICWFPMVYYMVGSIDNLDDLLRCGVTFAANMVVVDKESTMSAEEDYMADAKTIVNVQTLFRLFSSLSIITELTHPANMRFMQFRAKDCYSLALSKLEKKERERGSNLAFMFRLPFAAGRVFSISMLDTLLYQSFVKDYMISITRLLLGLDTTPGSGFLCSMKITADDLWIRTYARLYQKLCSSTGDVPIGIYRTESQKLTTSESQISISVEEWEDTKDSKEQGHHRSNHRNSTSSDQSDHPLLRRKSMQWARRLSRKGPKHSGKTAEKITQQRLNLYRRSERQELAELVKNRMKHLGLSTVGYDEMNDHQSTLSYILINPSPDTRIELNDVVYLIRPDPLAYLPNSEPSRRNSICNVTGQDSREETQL
Put plainly: Excised inside-out macropatch recordings of ISlo2.1 from oocytes. The format is cell-based. To be noted: 10 µM in bath (cytosolic) solution.

For `CCCCCCCC(=O)OC[C@H](COP(=O)(O)O[C@@H]1[C@H](O)[C@H](O)[C@@H](OP(=O)(O)O)[C@H](OP(=O)(O)O)[C@H]1O)OC(=O)CCCCCCC` [PI(4,5)P2 diC8, phosphatidylinositol 4,5-bisphosphate diC8], the “effect on run-down of macroscopic ISlo2.1 in excised patches” value is “preventable”.

Values taken from PMC3813382 (The Journal of General Physiology, 2013).
